biological target: T1, CDK2/Cyclin E complex (Homo sapiens, UniProt P24941); assay: CDK2/Cyclin E fluorescence-based microfluidic mobility shift assay (CDK2 Biochemical Caliper Assay); settings: read-out: Biochemical CDK2/CyclinE Caliper IC50
T1 construct: purchased Eurofins 14-475
Method in brief: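 Wild-type CDK2/Cyclin E was preincubated with compound and ATP for 30 min at RT before the 5-FAM-QSPKKG peptide was added. Final concentrations were 0.1 nM enzyme, 2000 uM ATP, 1.5 uM peptide and 1% DMSO. After 20 hr at RT and EDTA stop, substrate conversion was read by microfluidic mobility shift over an 11-point, 3-fold dilution series.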

Structure (SMILES)	IC50 [µM]
Cc1cc(CC(=O)Nc2cc([C@@H]3CC[C@@H](CC(=O)O)C3)[nH]n2)on1 (single isomer, unassigned) [Example 344]	1 to 100
CC(C)NC(=O)O[C@@H]1CC[C@H](c2cc(Nc3ccsn3)n[nH]2)C1 (single isomer, unassigned) [Example 114]	1 to 100
COCc1cc(C(=O)Nc2cc([C@H]3CC[C@@H](Oc4c(C)ccnc4C)C3)[nH]n2)n(C)n1 (single isomer, unassigned) [Example 479]	1 to 100
COCc1cc(C(=O)Nc2cc([C@H]3CC[C@@H](c4cccc(C(C)C)n4)C3)[nH]n2)n(C)n1 (single isomer, unassigned) [Example 605]	1 to 100
COCc1cc(C(=O)Nc2cc([C@@H]3CC[C@H](Oc4c(C)ccnc4C)C3)[nH]n2)n(C)n1 (single isomer, unassigned) [Example 478]	1 to 100
COCc1cc(C(=O)Nc2cc([C@@H]3CC[C@H](Oc4cncc(C)c4)C3)[nH]n2)n(C)n1 (single isomer, unassigned) [Example 384]	1 to 100
COC(=O)c1cc(Nc2cc(C3CCCC3)[nH]n2)cnn1 [Example 800]	1 to 100
Cc1cc(Nc2cc(C3CCCC3)[nH]n2)c2c(F)cccc2n1 [Example 812]	1 to 100
Cc1cc(CC(=O)Nc2cc([C@@H]3CC[C@H](NC(=O)CC(C)C)C3)[nH]n2)on1 (single isomer, unassigned) [Example 130]	1 to 100
Cc1cc2c(c(Nc3cc(C4CCCC4)[nH]n3)n1)C(=O)NC2=O [Example 792]	1 to 100
COCc1cc(C(=O)Nc2cc([C@H]3C[C@@H](Oc4cnccc4C4CC4)CO3)[nH]n2)n(C)n1 (single isomer, unassigned) [Example 539]	0.25 to 1
Cc1cc(CC(=O)Nc2cc([C@H]3CC[C@@H](Oc4ccccc4C(C)C)C3)[nH]n2)on1 (single isomer, unassigned) [Example 389]	0.25 to 1
COCc1cc(C(=O)Nc2cc([C@@H]3CC[C@H](c4ncc(C)cn4)C3)[nH]n2)n(C)n1 (single isomer, unassigned) [Example 594]	1 to 100
COCc1cc(C(=O)Nc2cc([C@H]3CC[C@@H](c4ncc(C)cn4)C3)[nH]n2)n(C)n1 (single isomer, unassigned) [Example 592]	1 to 100
COCc1cc(C(=O)Nc2cc([C@@H]3CC[C@@H](c4cnc(C)cn4)C3)[nH]n2)n(C)n1 (single isomer, unassigned) [Example 578]	1 to 100
CC(C)NC(=O)N[C@H]1CC[C@@H](c2cc(Nc3ncccn3)n[nH]2)C1 (single isomer, unassigned) [Example 124]	1 to 100
CNS(=O)(=O)N[C@H]1CC[C@@H](c2cc(NC(=O)Cc3cc(C)no3)n[nH]2)C1 (single isomer, unassigned) [Example 146]	1 to 100
COCc1cc(C(=O)Nc2cc([C@@H]3CC[C@@H](c4nccc(C(C)C)n4)C3)[nH]n2)n(C)n1 (single isomer, unassigned) [Example 612]	1 to 100
CCS(=O)(=O)N[C@@H]1CC[C@H](c2cc(NC(=O)Cc3cc(C)no3)n[nH]2)C1 (single isomer, unassigned) [Example 133]	1 to 100
Cc1cc(CC(=O)Nc2cc([C@@H]3CC[C@H](n4cc(C)[nH]c4=O)C3)[nH]n2)on1 (single isomer, unassigned) [Example 349]	0.25 to 1
Cc1cc(CC(=O)Nc2cc([C@H]3C[C@H](COc4nnccc4C(C)C)C3)[nH]n2)on1 [Example 432]	0.1 to 0.25
Cc1cc(CC(=O)Nc2cc([C@@H]3CC[C@H](NC(=O)OC(C)C)C3)[nH]n2)on1 (single isomer, unassigned) [Example 144]	1 to 100
Cc1ncccc1O[C@H]1CO[C@@H](c2cc(Nc3nccn4nccc34)n[nH]2)C1 [Example 522]	0.25 to 1
c1cncc(O[C@H]2CC[C@@H](c3cc(Nc4ncnc5ncccc45)n[nH]3)C2)c1 (single isomer, unassigned) [Example 499]	0.25 to 1
COCc1cc(C(=O)Nc2cc([C@H]3CC[C@@H](Oc4cnccc4C)C3)[nH]n2)n(C)n1 (single isomer, unassigned) [Example 366]	1 to 100
Cc1cc(CC(=O)Nc2cc([C@H]3CC[C@@H](OC(=O)[C@@H](N)C(C)C)C3)[nH]n2)on1 (single isomer, unassigned) [Example 468]	0.1 to 0.25
COCc1cc(C(=O)Nc2cc([C@@H]3CC[C@H](c4cccc(C(C)C)n4)C3)[nH]n2)n(C)n1 (single isomer, unassigned) [Example 606]	1 to 100
Cc1cc(CC(=O)Nc2cc([C@@H]3CC[C@H](Oc4ccccc4)C3)[nH]n2)on1 (single isomer, unassigned) [Example 350]	1 to 100
COCc1cc(C(=O)Nc2cc([C@@H]3C[C@@H](OC)[C@H](OC(=O)NC(C)C)C3)[nH]n2)n(C)n1 (single isomer, unassigned) [Example 568]	1 to 100
COCc1cc(C(=O)Nc2cc([C@H]3CC[C@H](c4ccc(C)[nH]c4=O)C3)[nH]n2)n(C)n1 (racemic) [Example 517]	1 to 100

Continued, values first:

IC50 [µM]	Structure (SMILES)
≤ 0.1	COCc1cc(C(=O)Nc2cc([C@H]3CC[C@@H](Oc4nnccc4C(C)C)CC3)[nH]n2)n(C)n1 [Example 627]
≤ 0.1	CC1(NC(=O)O[C@@H]2CO[C@H](c3cc(Nc4nccn5nccc45)n[nH]3)C2)CC1 [Example 782]
0.1 to 0.25	CC1(NC(=O)O[C@H]2CO[C@@H](c3cc(Nc4ccc5nccnc5n4)n[nH]3)C2)CC1 [Example 762]
≤ 0.1	COCc1nc2ccnc(Nc3cc([C@H]4C[C@@H](OC(=O)NC(C)(C)COC)CO4)[nH]n3)c2s1 [Example 701]
≤ 0.1	CC(C)n1cnnc1OC[C@H]1C[C@@H](c2cc(Nc3nccn4nccc34)n[nH]2)C1 [Example 635]
0.1 to 0.25	Cc1cc(CC(=O)Nc2cc([C@@H]3CC[C@H](OC(=O)[C@H](N)C(C)C)C3)[nH]n2)on1 (single isomer, unassigned) [Example 451]
≤ 0.1	Cn1nc(COC(F)(F)F)cc1C(=O)Nc1cc([C@@H]2C[C@H](OC(=O)NC3(C)CC3)CO2)[nH]n1 [Example 773]
≤ 0.1	CC(C)NC(=O)O[C@H]1CO[C@@H](c2cc(NC(=O)c3cc(COC(F)(F)F)nn3C)n[nH]2)C1 [Example 706]
≤ 0.1	COCc1cc(C(=O)Nc2cc([C@H]3C[C@@H](OC(=O)NC4(C)CC4)CO3)[nH]n2)n(C(F)(F)F)n1 [Example 895]
≤ 0.1	CC(C)NC(=O)O[C@@H]1CO[C@H](c2cc(Nc3nccc4nccn34)n[nH]2)C1 [Example 648]
≤ 0.1	COCc1cc(C(=O)Nc2cc([C@@H]3CC[C@H](Oc4nnccc4C(F)(F)F)C3)[nH]n2)n(C)n1 (single isomer, unassigned) [Example 477]
0.1 to 0.25	COCc1cc(C(=O)Nc2cc([C@H]3CC[C@@H](Oc4cccnc4C(C)C)C3)[nH]n2)n(C)n1 (single isomer, unassigned) [Example 472]
≤ 0.1	c1cncc(O[C@H]2CC[C@@H](c3cc(Nc4nccn5nccc45)n[nH]3)C2)c1 (single isomer, unassigned) [Example 505]
≤ 0.1	CCOC(=O)c1cc2c(Nc3cc([C@@H]4CC[C@H](OC(=O)NC(C)C)C4)[nH]n3)nc(C)cn2n1 (single isomer, unassigned) [Example 463]
≤ 0.1	Cn1nc(COC(F)(F)F)cc1C(=O)Nc1ncc([C@@H]2C[C@H](OC(=O)NC3(C)CC3)CO2)s1 (single isomer, unassigned) [Example 899]
≤ 0.1	COCc1cc2c(Nc3cc([C@H]4C[C@@H](OC(=O)NC56CCC(CC5)CC6)CO4)[nH]n3)nccn2n1 [Example 684]

IC50 [µM]	Structure (SMILES)
≤ 0.1	COCc1nc2ccnc(Nc3cc([C@H]4C[C@@H](OC(=O)NC5(C)COC5)CO4)[nH]n3)c2s1 [Example 696]
≤ 0.1	CC(C)c1ccnnc1O[C@@H]1CC[C@H](c2cc(Nc3nccc4ncsc34)n[nH]2)C1 [Example 436]
≤ 0.1	COCc1cc2c(Nc3cc([C@H]4C[C@@H](OC(=O)NC5CCC5)CO4)[nH]n3)nccn2n1 [Example 666]
≤ 0.1	COCc1cc2c(Nc3cc([C@H]4C[C@@H](COc5nnccc5C(C)C)C4)[nH]n3)nccn2n1 [Example 519]
≤ 0.1	Cn1nc(COC(F)(F)F)cc1C(=O)Nc1cc([C@H]2C[C@@H](OC(=O)NC3(C)CC3)CO2)[nH]n1 [Example 704]
≤ 0.1	CC(C)n1cnnc1O[C@H]1CO[C@@H](c2cc(Nc3nccn4nccc34)n[nH]2)C1 [Example 784]
≤ 0.1	Cn1nc(C(F)(F)F)cc1C(=O)Nc1cc([C@H]2C[C@@H](OC(=O)NC3(C)CC3)CO2)[nH]n1 [Example 770]
≤ 0.1	Cn1nc(COC(F)(F)F)cc1C(=O)Nc1cc([C@H]2C[C@@H](OC(=O)NC3(C#N)CC3)CO2)[nH]n1 [Example 788]
≤ 0.1	Cc1cc(CC(=O)Nc2cc([C@H]3C[C@@H](COc4nnccc4C(C)C)C3)[nH]n2)on1 [Example 431]
≤ 0.1	COCc1cc2c(Nc3cc([C@H]4C[C@@H](OC(=O)N[C@H](C)CC(F)(F)F)CO4)[nH]n3)nccn2n1 [Example 638]
≤ 0.1	C[C@@H](NC(=O)O[C@@H]1CO[C@H](c2cc(NC(=O)c3cc(OCC(F)(F)F)nn3C)n[nH]2)C1)C1CC1 [Example 910]
≤ 0.1	CC(C)NC(=O)OC[C@H]1C[C@@H](c2cc(Nc3ccc4c(n3)C(C)(C)NC4=O)n[nH]2)C1 [Example 589]
≤ 0.1	Cc1cc(CC(=O)Nc2cc([C@H]3CC[C@@H](OC(=O)[C@H](N)C(C)C)C3)[nH]n2)on1 (single isomer, unassigned) [Example 450]
≤ 0.1	COCc1cc2c(Nc3cc([C@H]4C[C@@H](OC(=O)NC56CC(F)(C5)C6)CO4)[nH]n3)nccn2n1 [Example 710]
≤ 0.1	C[C@@H](NC(=O)O[C@H]1CO[C@@H](c2cc(NC(=O)c3cc(OCC(F)(F)F)nn3C)n[nH]2)C1)C1CC1 [Example 917]

From patent US20240190855A1 (Relay Therapeutics, Inc., priority 2021, published 2024)
